Laboratory results: US7919671B2, “Method for testing a compound for a therapeutic effect and a diagnostic method” (Chempath Oy, priority 2004, dated 2011)

Key:
human PAP = target: T1, human PAP (Homo sapiens, UniProt P15309); test: protein overlay assay of PAP binding to immobilized phospholipids (PIP Strips); conditions: 100 pmole lipid per spot on nitrocellulose strip; 10 μg/ml or 50 μg/ml human PAP, overnight at +4° C.
T1 sequence (P15309 33-386): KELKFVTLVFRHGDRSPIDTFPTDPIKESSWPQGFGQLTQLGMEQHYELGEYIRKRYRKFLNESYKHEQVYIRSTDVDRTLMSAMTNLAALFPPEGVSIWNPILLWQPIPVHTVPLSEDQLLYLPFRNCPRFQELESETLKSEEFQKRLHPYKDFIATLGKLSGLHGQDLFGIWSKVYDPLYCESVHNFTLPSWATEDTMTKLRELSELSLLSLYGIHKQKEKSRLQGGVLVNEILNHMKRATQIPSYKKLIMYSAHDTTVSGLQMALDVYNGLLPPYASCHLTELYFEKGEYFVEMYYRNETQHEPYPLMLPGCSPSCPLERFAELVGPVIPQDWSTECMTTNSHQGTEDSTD
Experimental: (D) The phospholipid binding properties of PAP. Nitrocellulose-immobilized phospholipids at 100 pmole per spot. The lipids, indicated by dashed circles, are: 1. lysophosphatidic acid, 2. lysophosphocholine, 3. PI; 4. PI(3)P; 5. PI(4)P; 6. PI(5)P; 7. phosphatidyletanolamine; 8. phosphatidylcholine; 9. spingosine-1-phosphate; 10. PI(3,4)P2; 11. PI(3,5)P2; 12. PI(4,5)P2; 13. PI(3,4,5)P3; 14. phosphatidic acid; 15. phosphatidylserine; 16. blank. The strip was incubated with human PAP at concentration 10 μg/ml.
The interaction between PAP and PI lipids was investigated using protein overlay assay.
The binding of human PAP to phospholipids was screened using PIP Strips™ (Echelon Bioscience). 100 pmole of lysophosphatidic acid, lysophosphocholine, PI, PI(3)P, PI(4)P, PI(5)P, phosphatidyletanolamine, phosphatidylcholine, sphingosine-1-phosphate, PI(3,4)P2, PI(3,5)P2, PI(4,5)P2, PI(3,4,5)P3, phosphatidic acid, and phosphatidylserine was immobilized on a nitrocellulose strip. The strip was incubated with 10 μg/ml or 50 μg/ml human PAP in 4% non-fat dry milk (Valio) in TBS-T overnight at +4° C. The bound PAP was detected using polyclonal PAP antibody produced by us (Vihko et al., 1978, Clin. Chem. 24, 1915-1919), alkalinephosphatase conjugated secondary antibody (Sigma), and the NBT/BCIP color reaction assay (Promega).

[1] = target: T2, PAP purified from human spermatic fluid (Homo sapiens, UniProt P15309); test: malachite green assay of the PI(3)P phosphatase activity of PAP; format: biochemical; conditions: 50 mM MES buffer, pH 6.5, 37° C.
T2 construct: purified from human spermatic fluid as previously described; from tissue; host or cells: human spermatic (seminal) fluid
T2 sequence (P15309 33-386): T1 sequence (P15309 33-386)
Experimental: (E) PI(3)P phosphatase activity of PAP. Phosphatase assays containing 0.01 μg/μl PAP with varying amounts of PI(3)P or buffer were incubated for 5 min at 37° C. and free phosphate was measured by malachite green assay. Initial velocities were calculated from these time courses and plotted against the respective substrate concentration.
To confirm that PAP hydrolyses PI(3)P the lipid phosphatase activity of PAP towards PI(3)P was studied. […] Being sigmoidal, the kinetic curve was inconsistent with Michaelis-Menten kinetics.
A malachite green assay (BIOMOL GREEN™, BIOMOL Research Laboratories, Inc.) adapted to a 96-well format was used to measure the released free-phosphate from PI(3)P (Echelon Bioscience Inc.). Briefly, the reaction (total volume of 25 μl) containing 50 mM MES buffer, pH 6.5 and an indicated amount of PI(3)P, was initiated by adding the PAP (0.25 μg per reaction) purified from human spermatic fluid as previously described (specific activity of the enzyme 397 μmol min^−1 mg^−1) (Vihko et al. 1978, Clin. Chem. 24, 1915-1919). After incubation at 37° C. for 2 and 5 min the reaction was terminated by adding 100 μl of BIOMOL GREEN reagent. The green color was allowed to develop for 20 min at room temperature and absorbance was measured at 650 nm. The phosphate released was quantified by comparing to inorganic phosphate standards. […]

CCCCCCCCCCCCCCCC(=O)OC[C@H](COP(=O)(O)O[C@@H]1[C@H](O)[C@H](OP(=O)(O)O)[C@@H](O)[C@H](O)[C@H]1O)OC(=O)CCCCCCCCCCCCCCC [PI(3)P, phosphatidylinositol 3-phosphate] was tested, and the “binding of PAP to the lipid” value (human PAP) was “binds strongly”, the “lipid phosphatase activity of PAP towards the lipid (use as a substrate)” value ([1]; 0.25 μg PAP per reaction, 2 and 5 min) was “utilizes PI(3)P as a substrate” and the “shape of the kinetic curve (initial velocity against substrate concentration)” value ([1]; inconsistent with Michaelis-Menten kinetics) was “sigmoidal”.

CCCCCCCCCCCCC/C=C/[C@@H](O)[C@@H](N)COP(=O)(O)O [sphingosine-1-phosphate] was tested, and the “binding of PAP to the lipid” value (human PAP) was “no affinity”.

In the case of PI(3,4)P2, the “binding of PAP to the lipid” value (human PAP) is reported as “no affinity”.

In the case of PI(3,4,5)P3, the “binding of PAP to the lipid” value (human PAP) is reported as “no affinity”.

In the case of PI(3,5)P2, the “binding of PAP to the lipid” value (human PAP) is reported as “no affinity”.

For PI(4,5)P2, the “binding of PAP to the lipid” value (human PAP) was “no affinity”.

In the case of PI(5)P, the “binding of PAP to the lipid” value (human PAP) is reported as “no affinity”.

In the case of Phosphatidylinositol [PI], the “binding of PAP to the lipid” value (human PAP) is reported as “no affinity”.

lysophosphatidic acid was tested, and the “binding of PAP to the lipid” value (human PAP) was “no affinity”.

With lysophosphocholine the “binding of PAP to the lipid” value (human PAP) was “no affinity”.

With phosphatidic acid the “binding of PAP to the lipid” value (human PAP) was “no affinity”.

phosphatidylcholine was tested, and the “binding of PAP to the lipid” value (human PAP) was “no affinity”.

For phosphatidylethanolamine, the “binding of PAP to the lipid” value (human PAP) was “no affinity”.

For “phosphatidylinositol 4-phosphate [PI(4)P]”, the “binding of PAP to the lipid” value (human PAP) was “no affinity”.

With phosphatidylserine the “binding of PAP to the lipid” value (human PAP) was “no affinity”.
